The results in this text go back to patent US9309285B2, “Macrocyclic broad spectrum antibiotics” (priority 2012, dated 2016).

Like-named read-outs stand apart in the source and are kept apart here.

In test [1] the test system is Methicillin Resistant Staphylococcus aureus strain USA 300 (NRS384). As to the kind of experiment: MIC by broth micro-dilution (CLSI), S. aureus. It counts as cell-based. As to conditions: Staphylococcus aureus, MRSA / NRS 384 / USA300; MRSA USA 300 (NRS384); cation adjusted Mueller Hinton Broth + 0.002% Tween-80; 35° C., 22 hours; read-out: MIC (μg/mL) S. aureus. Here is the method: In vitro antimicrobial activity of each compound was determined by measuring minimal inhibitor concentrations (MICs) using the broth micro-dilution technique as approved by the Clinical and Laboratory Standards Institute (CLSI) (Methods for Dilution Antimicrobial Susceptibility Tests for Bacteria that Grow Aerobically; Approved Standard—Eighth Edition. CLSI document M07-A8. Wayne, Pa.: Clinical and Laboratroy Standards; 2009). Antibacterial activity was measure against two strains of bacteria: a Methicillin Resistant Staphylococcus aureus strain USA 300 (NRS384) and a strain of Escherichia coli MC4100 harboring the IMP4213, which results in increased outer-membrane permeability (B Martin and Silhavy T. Imp/OstA is required for cell envelope biogenesis in Escherichia coli. (2002) Molecular Microbiology, 45(5), 1289-1302). Cells were inoculated onto plates of Trypyticase Soy Agar or Luria Agar respectively and grown at 35° C. for 20 hours. Inocula suspensions were prepared by scraping cells into 1 ml of testing media (cation adjusted Mueller Hinton Broth supplemented with 0.002% v/v Tween-80) and diluting to a final OD600 nm of 0.01.
Test compounds were prepared in DMSO at a concentration of 10 mg/ml. These compound stocks were diluted into testing media at a concentration of 64 μg/ml and serial 2-fold dilutions were made in the same media, in 96-well U bottom microtiter dishes, for a total of 10 compound concentrations. Inocula suspensions were added to the 2-fold serial dilutions of test compounds to a final density of OD OD600 nm of 0.0005 and incubated at 35° C. for 22 hours.

In another test the target is T1, E. coli SPase (Escherichia coli, UniProt P00803).
T1 construct: Full length His-tagged E. coli and S. aureus SPase proteins were expressed in E. coli BL21; His tag; made in house; host or cells: E. coli BL21 (DE3)
As to the kind of experiment: SPase enzyme inhibition assay, fluorogenic peptide substrate, E. coli. It counts as biochemical. The procedure:
(§1) Briefly, for expression of E. coli SPase, saturated overnight cultures grown in 20 ml of Luria-Bertani medium supplemented with ampicillin were subcultures into 1.5 L of Luria-Bertani, and shaken at 37° C. until an optical density at 600 nm of 0.4-0.5 was achieved. […] S. aureus SPase was expressed and purified similarly, with the following exceptions. […] Resin bound protein was washed in a similar buffer containing 1% Elugent in place of Triton X-100 prior to protein elution in wash buffer supplemented with 300 mM imidazole. […] All protein concentrations were determined by BCA assay.
(§2) Enzyme master solution was prepared by diluting Escherichia coli or Staphylococcus aureus SPase protein into reaction buffer to a final concentration of 3 nM or 10 nM respectively. Reaction buffer consisted of 20 mM NaKHPO4 pH 7.4, 100 mM NaCl, and 1% v/v Elugent™ detergent. Reactions were initiated by the addition of substrate to a final concentration of 20 μM. Reaction progress was monitored by measuring the increase in fluorescence signal (excitation at 314 nm, emission at 416 nm) using a SpectraMax M2 fluorescence microplate reader. […] Three-folder serial dilutions of test compounds, starting at 10 μM, were prepared in enzyme mix solution and incubated at room temperature for 10 minutes. Following this incubation, fluorogenic substrate was added to a final concentration of 20 μM and the increase in fluorescence, corresponding to substrate cleavage, was monitored continuously at room temperature for 1 hour. Initial reaction rates were calculated based on the rate of increase in fluorescence during the reaction. Reaction rates were plotted as a function of compound concentration, and IC50 values were determined nonlinear regression analysis (SoftMaxPro 5.4, Molecular Devices™) of the sigmoidal dose-response curve.

For another test, the target named is T2, S. aureus SPase (Staphylococcus aureus, UniProt P0A070).
T2 construct: Full length His-tagged E. coli and S. aureus SPase proteins were expressed in E. coli BL21; His tag; made in house; host or cells: E. coli BL21 (DE3)
T2 sequence (P0A070 1-191): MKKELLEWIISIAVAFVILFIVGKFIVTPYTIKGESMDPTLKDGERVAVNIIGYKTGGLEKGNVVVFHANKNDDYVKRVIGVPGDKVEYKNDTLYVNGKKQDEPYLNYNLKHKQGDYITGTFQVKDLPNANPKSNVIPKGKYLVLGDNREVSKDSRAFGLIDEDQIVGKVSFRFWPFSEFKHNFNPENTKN
In words: SPase enzyme inhibition assay, fluorogenic peptide substrate, S. aureus. It counts as biochemical. The procedure: as §1, §2

Where [2] appears, read: 3 nM E. coli SPase, 20 μM substrate, 10 minutes pre-incubation, room temperature, read-out: IC 50 (nM) E. coli.

T1 sequence (P00803 whole entry): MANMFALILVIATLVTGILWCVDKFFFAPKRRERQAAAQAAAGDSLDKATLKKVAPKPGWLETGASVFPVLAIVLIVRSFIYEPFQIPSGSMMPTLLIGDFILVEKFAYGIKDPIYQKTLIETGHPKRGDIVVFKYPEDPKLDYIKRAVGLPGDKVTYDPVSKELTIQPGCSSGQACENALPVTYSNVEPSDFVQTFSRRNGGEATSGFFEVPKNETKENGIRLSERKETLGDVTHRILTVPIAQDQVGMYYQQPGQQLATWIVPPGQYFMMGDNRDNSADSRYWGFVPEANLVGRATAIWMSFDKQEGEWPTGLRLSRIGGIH

Turning to `CCCCCCCC(=O)N[C@@H](CCCCN)C(=O)N(C)[C@@H]1C(=O)N[C@@H](C)C(=O)N[C@H](C(=O)NCB2O[C@@H]3C[C@@H]4C[C@@H](C4(C)C)[C@]3(C)O2)Cc2ccc(O)c(c2)-c2cc1ccc2O` [Compound 126], the MIC in test [1] amounted to 32 µg/mL. Moreover, the IC50 against E. coli SPase worked out at 13 nM; on S. aureus SPase it was 0.13 µM.

`CCCCc1ccc(-c2ccc(C(=O)NC(C)CC(=O)N[C@@H](CCCCN)C(=O)N(C)[C@@H]3C(=O)N[C@@H](C)C(=O)N[C@H](C(=O)O)Cc4ccc(O)c(c4)-c4cc3ccc4O)cc2)cc1` (stereo partly drawn) [Compound 106]: the MIC in test [1] is 2 µg/mL. For the same compound, the IC50 on E. coli SPase (setting [2]) was determined as 2.9 nM; against S. aureus SPase, 0.0088 µM.

`CCCCc1ccc(-c2ccc(C(=O)N[C@@H](CCCCN)C(=O)N[C@H]3COCCCCOCC[C@@H](C(=O)N[C@@H](C)B4O[C@@H]5C[C@@H]6C[C@@H](C6(C)C)[C@]5(C)O4)NC(=O)[C@H](C)NC3=O)cc2)cc1` [Compound 207]: in test [1], the MIC came to 1.3 µg/mL. Also, the results for the IC50 at E. coli SPase (setting [2]) and against S. aureus SPase were 21 nM and 0.21 µM, respectively.

As for `CCCCc1ccc(-c2ccc(C(=O)N[C@@H](CCCCN)C(=O)N(C)[C@@H]3C(=O)N[C@@H](C)C(=O)N[C@H](C(=O)N[C@@H](C)B4O[C@@H]5C[C@@H]6C[C@@H](C6(C)C)[C@]5(C)O4)CCCCc4cc3ccc4OC)cc2)cc1` [Compound 209], the MIC in test [1] was determined as 4 µg/mL. Also, the IC50 came out at 84 nM at E. coli SPase and 3.7 µM at S. aureus SPase.

For the compound `CCCCc1ccc(-c2ccc(C(=O)NC[C@@H](C)C(=O)N[C@@H](CCCCN)C(=O)N(C)[C@@H]3C(=O)N[C@@H](C)C(=O)N[C@H](C(=O)O)Cc4ccc(O)c(c4)-c4cc3ccc4O)cc2)cc1` [Compound 103], the MIC in test [1] is 2.1 µg/mL. In addition, the values for the IC50 on E. coli SPase (setting [2]) and against S. aureus SPase were 1.3 nM and 0.008 µM, respectively.

Regarding `CCCCc1ccc(-c2ccc(C(=O)N[C@@H](C)CC(=O)N[C@@H](CCCCN)C(=O)N(C)[C@@H]3C(=O)N[C@@H](C)C(=O)N[C@H](C(=O)O)Cc4ccc(O)c(c4)-c4cc3ccc4O)cc2)cc1` [Compound 107], the MIC in test [1] came to 11 µg/mL. In addition, the IC50 on E. coli SPase (setting [2]) is 0.6 nM; at S. aureus SPase, 0.0026 µM.

As for `CCCCc1ccc(-c2ccc(C(=O)NCC(C)C(=O)N[C@@H](CCN)C(=O)N(C)[C@@H]3C(=O)N[C@@H](C)C(=O)N[C@H](C(=O)O)Cc4ccc(O)c(c4)-c4cc3ccc4O)cc2)cc1` (single isomer, unassigned) [Compound 114], the MIC in test [1] was 64 µg/mL. Moreover, the IC50 at E. coli SPase (setting [2]) was 730 nM; against S. aureus SPase, 2.2 µM.

For the compound `CCCCc1ccc(-c2ccc(C(=O)NCC(C)C(=O)N[C@@H](CCCCN)C(=O)N(C)[C@@H]3C(=O)N[C@@H](C)C(=O)N[C@H](C(=O)O)Cc4ccc(O)c(c4)-c4cc3ccc4O)cc2)cc1` (mixture of isomers) [Compound 104], the MIC in test [1] came out at 4 µg/mL. In addition, the IC50 came to 3.7 nM on E. coli SPase (setting [2]) and 0.012 µM at S. aureus SPase.

With `C[C@@H]1NC(=O)[C@@H](N(C)C(=O)[C@H](CCCCN)NC(=O)c2ccc(-c3ccc(Cl)cc3)cc2)c2ccc(O)c(c2)-c2cc(ccc2O)C[C@@H](C(=O)N[C@@H](C)C=O)NC1=O` [Compound 134], the MIC in test [1] was 10 µg/mL. For the same compound, the IC50 amounted to 0.8 nM at E. coli SPase (setting [2]) and 0.0082 µM against S. aureus SPase.

`CCCCc1ccc(-c2ccc(CC(=O)NCCC(=O)N[C@@H](CCCCN)C(=O)N(C)[C@@H]3C(=O)N[C@@H](C)C(=O)N[C@H](C(=O)O)Cc4ccc(O)c(c4)-c4cc3ccc4O)cc2)cc1` [Compound 101]: the MIC in test [1] came out at 6.3 µg/mL. The results for the IC50 at E. coli SPase (setting [2]) and against S. aureus SPase were 5.4 nM and 0.03 µM, respectively.

Consider `CCCCc1ccc(-c2ccc(C(=O)NCC(C)C(=O)N[C@@H](CCCN)C(=O)N(C)[C@@H]3C(=O)N[C@@H](C)C(=O)N[C@H](C(=O)O)Cc4ccc(O)c(c4)-c4cc3ccc4O)cc2)cc1` (stereo partly drawn) [Compound 113], for which the MIC in test [1] came to 4 µg/mL. The IC50 at E. coli SPase (setting [2]) is 3.6 nM; on S. aureus SPase, 0.069 µM.
